Results on four compounds are retold here after patent US20100210556A1, “USE OF A PEPTIDE AS A THERAPEUTIC AGENT” (priority 2007, published 2010).

Where no end group is shown, it is not given here. [ ]: non-standard residue; d: D form. βAla = NCCC(=O)O

The test system of one test is HIV-1IIIB. The format is cell-based. The note with it: CEM-SS T-cells, peptides 10 micrograms per ml, 6 days post-infection, MTS.
The next test has as its system RAW 264.7 cells. The test can be described thus: Phagocytosis assay (Fluorescein-labeled Escherichia coli, flow cytometry). The note with it: 10 micrograms per ml, 30 min preincubation, 60 min ingestion.
Test [1] deals with hepatitis B virus (HBV) ayw strain. The test can be described thus: HBV assay in HepG2-2.2.15 cells, secreted HBV DNA by TaqMan PCR. The format is cell-based. The settings on record: 10 micrograms per ml, six days, HBV DNA in supernatant. On the technique in general: In qPCR the cycle at which signal appears reflects the starting amount.
In another test the test system is HUVEC. The test can be described thus: Endothelial tube formation assay. The format is cell-based, human. The settings on record: 10 micrograms per ml, 20 hours. The text has this:
Positive control was vehicle only. […] Raw data were expressed as average tubule lenghs in pixels±standard deviation.

In the next test the test system is A549 cells. The test can be described thus: Apoptosis prevention assay (C2 ceramide, Annexin-5). It counts as cell-based. The settings on record: human lung cells (A549), 10 micrograms per ml, 30 min pretreatment.
The test system of another test is murine spleen cells. The test can be described thus: Th1/Th2 cytokine profiling assay (Ovalbumin-restimulated spleen cells, CBA kit). It counts as cell-based, Balb/c mice. The note with it: 10 micrograms per ml, Ovalbumin restimulation, 72 hours.
For test [2], the system named is Primary Human endothelial cells (HUVEC). The test can be described thus: Endothelial cell migration assay. The format is cell-based. The settings on record: 10 micrograms per ml, 22 hours. As for the experimental part: Thereafter, designated concentration of testing peptides —10 micrograms per ml—was added in duplicate wells.
In another test the test system is HCMV strain AD169. The test can be described thus: HCMV plaque formation assay in MRC-5 cells. The settings on record: HCMV AD169, 10 micrograms per ml, 7-10 days.

Protocol for A549 cells: Human A549 cells (carcinomic human alveolar basal epithelial cells) were utilized in the experiments employing the Annexin-5 apoptosis assay. […] A549 cells were pretreated for 30 min with test peptides —10 micrograms per ml—followed by the exposure to C2 ceramide. […] C2 ceramide is a synthetic, membrane soluble analog of ceramide.
Protocol for RAW 264.7 cells: RAW 264.7 (Mouse leukaemic monocyte macrophage cell line) cells were obtained from ATCC and grown in RPMI 1640 medium containing 10% FBS. Cells were incubated in 12×75 mm tubes at 37° C. with test peptides —10 micrograms per ml—for 30 min prior to adding Fluorescein-labeled Escherichia coli bacteria as the agent to be ingested. After the cells were incubated for additional 60 min at 37° C. and allowed to ingest the Fluorescein-labeled Escherichia coli bacteria, cells were fixed with 1% paraformaldehyde. The samples were then analyzed by flow cytometry to determine the amount of phagocytosis as a function of brightness (the greater the phagocytic activity, the more fluorescence in the macrophage population). Data are reported as % positive and the mean fluorescence intensity (MFI) of positively stained cells.
Description for murine spleen cells: The Balb/c mice (originated in 1923, it is a popular strain and is used in many different research disciplines. Also classified as an inbred from the production of 20 or more successive brother-sister matings, the Balb/c mouse is albino and small in size) were immunized on Days 1, 15, and 29 with Ovalbumin (Ovalbumin is the main protein found in egg white, commonly used to stimulate an immunological reaction in test animals) in PBS (5 micrograms/injection). On day 50, spleens of the mice were harvested (3 weeks after last boost with Ovalbumin). Cells were cultured (2×10^5/well in triplicate) and incubated with culture medium or test peptides —10 micrograms per ml—for 30 min. Thereafter, additional Ovalbumin was added to the cells at 10 micrograms/ml for in vitro restimulation of the cells. 72 hours later, cell supernatants were harvested and assayed using the Becton Dickinson Mouse Th1/Th2 Cytokine CBA Kit. This kit can be used to measure Interleukin-2 (IL-2), Interleukin-4 (IL-4), Interleukin-5 (IL-5), Interferon-γ (IFN-γ), and Tumor Necrosis Factor-α(TNF-α) protein levels in a single sample.

`Cc1cn([C@H]2C[C@H](N=[N+]=[N-])[C@@H](CO)O2)c(=O)[nH]c1=O` [AZT]: in the test on HIV-1IIIB, the “inhibition of HIV-1 activity (antiviral activity)” value is “expected levels of antiviral activity”.

Turning to `CC(C)(C)NC(=O)[C@@H]1CN(Cc2cccnc2)CCN1C[C@@H](O)C[C@@H](Cc1ccccc1)C(=O)N[C@H]1c2ccccc2C[C@H]1O` [indinavir], in the test on HIV-1IIIB, the “inhibition of HIV-1 activity (antiviral activity)” value was “expected levels of antiviral activity”.

As for “Ala-Ile-Phe-Ile-Phe-Ile-Arg-Trp-Leu-Leu-Lys-Leu-Gly-His-His-Gly-Arg-Ala-Pro-Pro-OH (AIFIFIRWLLKLGHHGRAPP-OH) [Peptide 1]”, the “induction of phagocytosis as compared to the control experiment” value with RAW 264.7 cells is recorded as “did not induced phagocytosis”. Moreover, the “inhibition of HBV replication as compared to the virus control infection” value in test [1] was found to be 44.6%. The “inhibition of the tube formation of human endothelial cells” value with HUVEC is 23%. For the same compound, the “reduction of ceramide-induced apoptosis” value with A549 cells is recorded as 28.2%. For the same compound, in the test on murine spleen cells, the “change of the production of IFN-gamma” value was “did not significantly change”, the “change of the production of IL-4” value is listed as “did not significantly change”, the “change of the production of IL-5” value was “did not significantly change” and the “change of the production of TNF-alpha” value is “did not significantly change”. Also, the “induction of the production of IL-2” value in the test with murine spleen cells stood at 156%. Also, the “inhibition of the migration of human endothelial cells” value in test [2] worked out at 19%. Moreover, in the test on HCMV strain AD169, the “inhibition of HCMV plaque formation as compared to the virus control experiment” value is recorded as “did not inhibit”.

For [βAla]-His-OH [Peptide 2], the “induction of phagocytosis as compared to the control experiment” value in the test on RAW 264.7 cells came out at 48.6%. Besides, the “inhibition of HBV replication as compared to the virus control infection” value in test [1] was found to be 29.6%. Further, the “inhibition of the tube formation of human endothelial cells” value with HUVEC stood at 21%. Further, in the test on A549 cells, the “reduction of ceramide-induced apoptosis” value is “did not reduce”. In the test with murine spleen cells, the “change of the production of IFN-gamma” value is recorded as “did not significantly change”, the “change of the production of IL-4” value is recorded as “did not significantly change”, the “change of the production of IL-5” value is listed as “did not significantly change” and the “change of the production of TNF-alpha” value is given as “did not significantly change”. Besides, the “induction of the production of IL-2” value with murine spleen cells is recorded as 26.5%. Further, in test [2], the “inhibition of the migration of human endothelial cells” value is reported as 8%. The “inhibition of HCMV plaque formation as compared to the virus control experiment” value in the test on HCMV strain AD169 is given as 4.4%.
